Legend:
Format in all cases: cell-based
[1] = molecular target: T1, ZBTB7A (Homo sapiens, UniProt O95365+Q96SW2); test: HUDEP-2 ZBTB7A HiBiT degradation assay; details: HiBiT-tagged ZBTB7A degradation in HUDEP-2 cells, 24 hours of treatment; read-out: ZBTB7A EC50
T1 construct: HUDEP-2 cells engineered to express a HiBiT tag in either the WIZ (Widely interspaced zinc finger) or ZBTB7A
Procedure, shortened: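 HiBiT-tagged HUDEP-2 cells were pre-cultured 48 h in IMDM with EPO, SCF, doxycycline and 5% human plasma, then exposed to compounds at 1.0×10^6 cells/ml for 24 h at 37 °C. Nano-Glo HiBiT lytic luminescence, normalised to DMSO over 10 concentrations, gave EC50 and Y-min.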

[2] = molecular target: T2, WIZ (Homo sapiens, UniProt O95785+Q96SW2); test: HUDEP-2 WIZ HiBiT degradation assay; details: HiBiT-tagged WIZ degradation in HUDEP-2 cells, 24 hours of treatment; read-out: WIZ EC50
T2 construct: HUDEP-2 cells engineered to express a HiBiT tag in either the WIZ (Widely interspaced zinc finger) or ZBTB7A
T2 sequence (O95785 whole entry): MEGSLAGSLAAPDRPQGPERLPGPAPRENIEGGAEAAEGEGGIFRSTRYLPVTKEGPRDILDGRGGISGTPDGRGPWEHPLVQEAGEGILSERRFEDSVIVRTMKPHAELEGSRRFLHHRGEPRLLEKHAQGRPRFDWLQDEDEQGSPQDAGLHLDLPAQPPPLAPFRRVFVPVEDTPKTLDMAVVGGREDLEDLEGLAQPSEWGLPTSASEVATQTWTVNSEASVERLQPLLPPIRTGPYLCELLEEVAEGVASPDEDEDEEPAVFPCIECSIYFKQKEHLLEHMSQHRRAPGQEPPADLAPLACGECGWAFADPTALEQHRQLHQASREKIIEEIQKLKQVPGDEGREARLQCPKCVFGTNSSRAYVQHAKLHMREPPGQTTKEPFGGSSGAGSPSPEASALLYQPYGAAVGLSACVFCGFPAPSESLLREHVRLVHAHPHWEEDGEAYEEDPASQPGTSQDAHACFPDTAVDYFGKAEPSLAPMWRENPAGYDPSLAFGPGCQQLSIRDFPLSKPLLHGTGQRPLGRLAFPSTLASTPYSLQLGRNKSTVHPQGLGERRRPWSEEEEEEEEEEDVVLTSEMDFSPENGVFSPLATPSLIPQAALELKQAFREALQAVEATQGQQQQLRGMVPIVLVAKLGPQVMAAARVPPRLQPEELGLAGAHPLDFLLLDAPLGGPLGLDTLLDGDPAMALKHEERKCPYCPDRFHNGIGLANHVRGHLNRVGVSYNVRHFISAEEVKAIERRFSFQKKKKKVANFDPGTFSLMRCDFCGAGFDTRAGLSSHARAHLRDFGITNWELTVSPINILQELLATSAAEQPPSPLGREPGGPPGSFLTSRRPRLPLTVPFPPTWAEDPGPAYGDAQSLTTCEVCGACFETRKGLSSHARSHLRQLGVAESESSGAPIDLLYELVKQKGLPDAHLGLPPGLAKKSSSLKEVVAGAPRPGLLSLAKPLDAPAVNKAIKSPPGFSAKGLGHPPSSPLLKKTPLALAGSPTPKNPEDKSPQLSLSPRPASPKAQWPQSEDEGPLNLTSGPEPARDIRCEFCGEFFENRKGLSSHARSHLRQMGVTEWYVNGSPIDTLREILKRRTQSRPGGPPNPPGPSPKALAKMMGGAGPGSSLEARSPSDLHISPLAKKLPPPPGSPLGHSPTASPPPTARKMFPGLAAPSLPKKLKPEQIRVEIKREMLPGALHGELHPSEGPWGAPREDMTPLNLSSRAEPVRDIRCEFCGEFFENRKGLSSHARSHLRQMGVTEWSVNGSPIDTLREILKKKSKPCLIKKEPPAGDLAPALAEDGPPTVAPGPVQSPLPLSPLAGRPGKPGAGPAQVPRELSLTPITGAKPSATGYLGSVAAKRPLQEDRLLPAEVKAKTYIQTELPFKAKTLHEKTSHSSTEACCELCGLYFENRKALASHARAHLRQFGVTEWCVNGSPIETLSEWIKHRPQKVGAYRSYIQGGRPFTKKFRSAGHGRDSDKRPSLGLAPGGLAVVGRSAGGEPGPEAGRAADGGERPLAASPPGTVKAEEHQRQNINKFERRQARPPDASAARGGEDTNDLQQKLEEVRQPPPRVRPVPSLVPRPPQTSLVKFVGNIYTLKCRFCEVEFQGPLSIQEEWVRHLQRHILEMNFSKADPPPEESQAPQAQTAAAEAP
T2 sequence (Q96SW2 whole entry): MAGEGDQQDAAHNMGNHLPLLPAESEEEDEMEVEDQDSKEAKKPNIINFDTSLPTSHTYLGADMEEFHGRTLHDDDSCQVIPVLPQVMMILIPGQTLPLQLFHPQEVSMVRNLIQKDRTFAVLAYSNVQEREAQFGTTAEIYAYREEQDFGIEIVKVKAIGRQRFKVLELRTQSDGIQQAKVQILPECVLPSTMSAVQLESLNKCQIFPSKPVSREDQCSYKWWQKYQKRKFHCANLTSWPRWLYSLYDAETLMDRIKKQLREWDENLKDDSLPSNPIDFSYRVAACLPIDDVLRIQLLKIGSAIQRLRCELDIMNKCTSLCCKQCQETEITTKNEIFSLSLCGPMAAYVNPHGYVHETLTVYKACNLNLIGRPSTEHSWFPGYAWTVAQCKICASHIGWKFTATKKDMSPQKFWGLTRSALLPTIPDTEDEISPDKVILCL
T2 sequence (Q16531 whole entry partner): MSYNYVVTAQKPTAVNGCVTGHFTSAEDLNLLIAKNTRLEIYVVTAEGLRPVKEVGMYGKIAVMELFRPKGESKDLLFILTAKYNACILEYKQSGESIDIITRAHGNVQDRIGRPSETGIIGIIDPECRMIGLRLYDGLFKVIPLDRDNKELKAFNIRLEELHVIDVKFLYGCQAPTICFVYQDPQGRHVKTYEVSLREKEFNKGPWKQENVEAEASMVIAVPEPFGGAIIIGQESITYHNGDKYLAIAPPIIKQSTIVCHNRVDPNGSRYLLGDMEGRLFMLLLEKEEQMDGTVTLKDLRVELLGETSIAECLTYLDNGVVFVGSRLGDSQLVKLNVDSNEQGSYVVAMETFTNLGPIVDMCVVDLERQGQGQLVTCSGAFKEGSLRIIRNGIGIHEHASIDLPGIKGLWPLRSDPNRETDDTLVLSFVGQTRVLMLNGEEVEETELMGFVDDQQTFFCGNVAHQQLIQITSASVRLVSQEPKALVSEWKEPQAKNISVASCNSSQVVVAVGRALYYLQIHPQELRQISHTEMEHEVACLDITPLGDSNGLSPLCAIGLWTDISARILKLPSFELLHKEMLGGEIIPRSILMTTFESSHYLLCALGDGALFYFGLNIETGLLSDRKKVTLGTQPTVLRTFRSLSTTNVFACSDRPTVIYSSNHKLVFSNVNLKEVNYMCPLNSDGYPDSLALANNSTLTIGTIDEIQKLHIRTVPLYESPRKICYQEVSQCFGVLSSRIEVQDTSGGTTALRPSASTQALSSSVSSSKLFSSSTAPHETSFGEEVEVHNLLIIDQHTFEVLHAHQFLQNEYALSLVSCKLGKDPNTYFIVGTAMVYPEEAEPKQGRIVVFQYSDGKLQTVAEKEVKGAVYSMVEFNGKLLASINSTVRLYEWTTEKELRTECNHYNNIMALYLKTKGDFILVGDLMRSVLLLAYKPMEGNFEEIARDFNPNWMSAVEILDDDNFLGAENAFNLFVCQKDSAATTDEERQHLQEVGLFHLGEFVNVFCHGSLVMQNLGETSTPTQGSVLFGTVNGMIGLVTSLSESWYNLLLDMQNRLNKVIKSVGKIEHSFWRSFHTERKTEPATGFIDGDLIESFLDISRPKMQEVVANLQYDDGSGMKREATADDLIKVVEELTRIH
Procedure, shortened: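 HiBiT-tagged HUDEP-2 cells at 1.0×10^6 cells/ml in SFEM II with SCF, EPO, dexamethasone and doxycycline, treated 24 h at 37 °C with a 10-point series ([…]). Luminescence after HiBiT lytic detection, normalized to DMSO; EC50 and Y-min from fitted curves.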

[3] = test system: HbF; test: HbF HiBiT induction assay in HUDEP-2 cells; details: HUDEP-2 cells with HiBiT tag in HBG1/2, 72 hours of treatment; area under the dose response curve, higher AUC = greater HbF induction
Procedure, shortened: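 HUDEP-2 cells carrying a HiBiT tag on HBG1/2 were exposed to compounds for 72 h at 37° C, 5% CO2, in IMDM with EPO, hSCF, DOX, transferrin, insulin, heparin and 5% human plasma. HiBiT luminescence was read after lytic detection; HbF induction is expressed as dose-response AUC, alongside EC50 and Ymax.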

T1 sequence (O95365 whole entry): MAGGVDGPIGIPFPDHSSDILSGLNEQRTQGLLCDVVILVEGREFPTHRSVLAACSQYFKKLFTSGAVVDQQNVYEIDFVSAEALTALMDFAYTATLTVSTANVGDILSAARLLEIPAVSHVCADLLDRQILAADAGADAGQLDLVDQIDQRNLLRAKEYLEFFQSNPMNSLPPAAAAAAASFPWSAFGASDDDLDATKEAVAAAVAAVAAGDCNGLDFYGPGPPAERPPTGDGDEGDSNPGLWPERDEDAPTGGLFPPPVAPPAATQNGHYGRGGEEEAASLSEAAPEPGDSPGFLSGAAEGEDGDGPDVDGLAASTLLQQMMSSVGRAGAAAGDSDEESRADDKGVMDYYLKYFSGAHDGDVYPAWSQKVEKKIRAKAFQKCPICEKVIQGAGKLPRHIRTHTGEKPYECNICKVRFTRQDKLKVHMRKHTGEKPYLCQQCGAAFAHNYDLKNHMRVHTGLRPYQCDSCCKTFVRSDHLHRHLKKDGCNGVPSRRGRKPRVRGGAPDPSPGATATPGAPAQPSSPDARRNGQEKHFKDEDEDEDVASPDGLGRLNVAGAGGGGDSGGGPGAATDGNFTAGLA
T1 sequence (Q96SW2 whole entry): as the sequence (Q96SW2 whole entry) above
T1 sequence (Q16531 whole entry partner): as the sequence (Q16531 whole entry partner) above

With `Cc1cc(-c2cc3c(cc2Nc2cccc4c2C(=O)N(C2CCC(=O)NC2=O)C4=O)N(C)C(=O)CO3)cc(C2CC2)n1` (stereo not drawn) [Compound 57, 4-((7-(2-cyclopropyl-6-methylpyridin-4-yl)-4-methyl-3-oxo-3,4-dihydro-2H-benzo[b][1,4]oxazin-6-yl)amino)-2-(2,6-dioxopiperidin-3-yl)isoindoline-1,3-dione] the DC50 [1] was 54 nM, the DC50 [2] was 18 nM and the “HBF AUC” value [3] was “+++ (+++ = AUC ≥ 150)”.
With `CNc1cc(-c2cc3c(cc2Nc2cccc4c2C(=O)N(C2CCC(=O)NC2=O)C4=O)N(C)C(=O)CO3)cc(C)n1` (stereo not drawn) [Compound 66, 2-(2,6-dioxopiperidin-3-yl)-4-((4-methyl-7-(2-methyl-6-(methylamino)pyridin-4-yl)-3-oxo-3,4-dihydro-2H-benzo[b][1,4]oxazin-6-yl)amino)isoindoline-1,3-dione] the DC50 [1] was 188 nM, the DC50 [2] was 15 nM and the “HBF AUC” value [3] was “++ (++ = 100 ≤ AUC < 150)”.
`CCN1C(=O)COc2cc(-c3cc(C)nc(C)c3)c(Nc3cccc4c3C(=O)N(C3CCC(=O)NC3=O)C4=O)cc21` (stereo not drawn) [Compound 56, 4-((7-(2,6-dimethylpyridin-4-yl)-4-ethyl-3-oxo-3,4-dihydro-2H-benzo[b][1,4]oxazin-6-yl)amino)-2-(2,6-dioxopiperidin-3-yl)isoindoline-1,3-dione] was tested, and the DC50 [1] was 43 nM, the DC50 [2] was 20 nM and the “HBF AUC” value [3] was “++ (++ = 100 ≤ AUC < 150)”.
With `COc1ncc(-c2cc3c(cc2Nc2cccc4c2C(=O)N(C2CCC(=O)NC2=O)C4=O)N(C)C(=O)CO3)cc1F` (stereo not drawn) [Compound 51, 2-(2,6-dioxopiperidin-3-yl)-4-((7-(5-fluoro-6-methoxypyridin-3-yl)-4-methyl-3-oxo-3,4-dihydro-2H-benzo[b][1,4]oxazin-6-yl)amino)isoindoline-1,3-dione] the DC50 [1] was 30 nM, the DC50 [2] was 37 nM and the “HBF AUC” value [3] was “++ (++ = 100 ≤ AUC < 150)”.
`Cc1ccc(-c2cc3c(cc2Nc2cccc4c2C(=O)N([C@H]2CCC(=O)NC2=O)C4=O)N(C)C(=O)CO3)c(F)n1` [Compound 37, (S)-2-(2,6-dioxopiperidin-3-yl)-4-((7-(2-fluoro-6-methylpyridin-3-yl)-4-methyl-3-oxo-3,4-dihydro-2H-benzo[b][1,4]oxazin-6-yl)amino)isoindoline-1,3-dione] was tested, and the DC50 [1] was 13 nM, the DC50 [2] was 7 nM and the “HBF AUC” value [3] was “+ (+ = 15 ≤ AUC < 100)”.
`CC(=O)N1CCC(c2cc3c(cc2Nc2cccc4c2C(=O)N([C@H]2CCC(=O)NC2=O)C4=O)N(C)C(=O)[C@H](C)O3)CC1` [Compound 31, 4-(((S)-7-(1-acetylpiperidin-4-yl)-2,4-dimethyl-3-oxo-3,4-dihydro-2H-benzo[b][1,4]oxazin-6-yl)amino)-2-((S)-2,6-dioxopiperidin-3-yl)isoindoline-1,3-dione] was tested, and the DC50 [1] was 35 nM, the DC50 [2] was 6 nM and the “HBF AUC” value [3] was “+++ (+++ = AUC ≥ 150)”.
`Cc1cc(-c2cc3c(cc2Nc2cccc4c2C(=O)N([C@H]2CCC(=O)NC2=O)C4=O)N(C)C(=O)[C@@H](C)C3)ccn1` [Compound 86, 4-(((S)-1,3-dimethyl-6-(2-methylpyridin-4-yl)-2-oxo-1,2,3,4-tetrahydroquinolin-7-yl)amino)-2-((S)-2,6-dioxopiperidin-3-yl)isoindoline-1,3-dione] was tested, and the DC50 [1] was 48 nM, the DC50 [2] was 9 nM and the “HBF AUC” value [3] was “+ (+ = 15 ≤ AUC < 100)”.
With `COc1cc(-c2c(Nc3cccc4c3C(=O)N([C@H]3CCC(=O)NC3=O)C4=O)cc3c(c2F)OCC(=O)N3C)c(F)cn1` [Compound 76, 2-((S)-2,6-dioxopiperidin-3-yl)-4-((8-fluoro-7-(5-fluoro-2-methoxypyridin-4-yl)-4-methyl-3-oxo-3,4-dihydro-2H-benzo[b][1,4]oxazin-6-yl)amino)isoindoline-1,3-dione] the DC50 [1] was 65 nM, the DC50 [2] was 22 nM and the “HBF AUC” value [3] was “+ (+ = 15 ≤ AUC < 100)”.
For `Cc1cc(-c2cc3c(cc2Nc2cccc4c2C(=O)N([C@H]2CCC(=O)NC2=O)C4=O)N(C)C(=O)[C@@H](C)O3)cc(C)n1` [Compound 24, 4-(((R)-7-(2,6-dimethylpyridin-4-yl)-2,4-dimethyl-3-oxo-3,4-dihydro-2H-benzo[b][1,4]oxazin-6-yl)amino)-2-((S)-2,6-dioxopiperidin-3-yl)isoindoline-1,3-dione], the DC50 [1] was 26 nM, the DC50 [2] was 14 nM and the “HBF AUC” value [3] was “+++ (+++ = AUC ≥ 150)”.
In the case of `Cc1cc(-c2cc3c(cc2Nc2cccc4c2C(=O)N(C2CCC(=O)NC2=O)C4=O)N(C)C(=O)CO3)cc(F)c1F` (stereo not drawn) [Compound 13, 4-((7-(3,4-difluoro-5-methylphenyl)-4-methyl-3-oxo-3,4-dihydro-2H-benzo[b][1,4]oxazin-6-yl)amino)-2-(2,6-dioxopiperidin-3-yl)isoindoline-1,3-dione], the DC50 [1] is reported as 38 nM, the DC50 [2] is reported as 50 nM and the “HBF AUC” value [3] is reported as “+ (+ = 15 ≤ AUC < 100)”.
In the case of `Cc1cc(-c2cc3c(cc2Nc2cccc4c2C(=O)N([C@H]2CCC(=O)NC2=O)C4=O)N(C)C(=O)O[C@@H]3C)c(F)cn1` [Compound 74, 2-((S)-2,6-dioxopiperidin-3-yl)-4-(((R)-6-(5-fluoro-2-methylpyridin-4-yl)-1,4-dimethyl-2-oxo-1,4-dihydro-2H-benzo[d][1,3]oxazin-7-yl)amino)isoindoline-1,3-dione], the DC50 [1] is reported as 10 nM, the DC50 [2] is reported as 11 nM and the “HBF AUC” value [3] is reported as “++ (++ = 100 ≤ AUC < 150)”.
In the case of `COc1nccc(-c2cc3oc(=O)n(C)c3cc2Nc2cccc3c2C(=O)N(C2CCC(=O)NC2=O)C3=O)c1F` (stereo not drawn) [Compound 65, 2-(2,6-dioxopiperidin-3-yl)-4-((6-(3-fluoro-2-methoxypyridin-4-yl)-3-methyl-2-oxo-2,3-dihydrobenzo[d]oxazol-5-yl)amino)isoindoline-1,3-dione], the DC50 [1] is reported as 96 nM, the DC50 [2] is reported as 41 nM and the “HBF AUC” value [3] is reported as “+ (+ = 15 ≤ AUC < 100)”.
For `Cc1cc(-c2cc3c(cc2Nc2cccc4c2C(=O)N([C@H]2CCC(=O)NC2=O)C4=O)N(C)C(=O)O[C@H]3C)c(F)cn1` [Compound 73, 2-((S)-2,6-dioxopiperidin-3-yl)-4-(((S)-6-(5-fluoro-2-methylpyridin-4-yl)-1,4-dimethyl-2-oxo-1,4-dihydro-2H-benzo[d][1,3]oxazin-7-yl)amino)isoindoline-1,3-dione], the DC50 [1] was 11 nM, the DC50 [2] was 12 nM and the “HBF AUC” value [3] was “++ (++ = 100 ≤ AUC < 150)”.
`Cc1cc(-c2cc3c(cc2Nc2cccc4c2C(=O)N([C@H]2CCC(=O)NC2=O)C4=O)N(C)C(=O)OC3C)cc(C)n1` (stereo partly drawn) [Compound 72, 4-((6-(2,6-dimethylpyridin-4-yl)-1,4-dimethyl-2-oxo-1,4-dihydro-2H-benzo[d][1,3]oxazin-7-yl)amino)-2-((S)-2,6-dioxopiperidin-3-yl)isoindoline-1,3-dione] was tested, and the DC50 [1] was 21 nM, the DC50 [2] was 14 nM and the “HBF AUC” value [3] was “+++ (+++ = AUC ≥ 150)”.
`Cc1cc(-c2c(Nc3cccc4c3C(=O)N(C3CCC(=O)NC3=O)C4=O)cc3c(c2F)OCC(=O)N3C)cc(C(F)F)n1` (stereo not drawn) [Compound 78, 4-((7-(2-(difluoromethyl)-6-methylpyridin-4-yl)-8-fluoro-4-methyl-3-oxo-3,4-dihydro-2H-benzo[b][1,4]oxazin-6-yl)amino)-2-(2,6-dioxopiperidin-3-yl)isoindoline-1,3-dione] was tested, and the DC50 [1] was 70 nM, the DC50 [2] was 76 nM and the “HBF AUC” value [3] was “++ (++ = 100 ≤ AUC < 150)”.
For `Cc1cncc(-c2cc3c(cc2Nc2cccc4c2C(=O)N([C@H]2CCC(=O)NC2=O)C4=O)N(C)C(=O)CO3)c1` [Compound 41, (S)-2-(2,6-dioxopiperidin-3-yl)-4-((4-methyl-7-(5-methylpyridin-3-yl)-3-oxo-3,4-dihydro-2H-benzo[b][1,4]oxazin-6-yl)amino)isoindoline-1,3-dione], the DC50 [1] was 17 nM, the DC50 [2] was 10 nM and the “HBF AUC” value [3] was “+++ (+++ = AUC ≥ 150)”.
With `Cc1cc(-c2cc3c(cc2Nc2cccc4c2C(=O)N([C@H]2CCC(=O)NC2=O)C4=O)N(C)C(=O)CO3)c(F)cn1` [Compound 7, (S)-2-(2,6-dioxopiperidin-3-yl)-4-((7-(5-fluoro-2-methylpyridin-4-yl)-4-methyl-3-oxo-3,4-dihydro-2H-benzo[b][1,4]oxazin-6-yl)amino)isoindoline-1,3-dione] the DC50 [1] was 9 nM, the DC50 [2] was 7 nM and the “HBF AUC” value [3] was “+++ (+++ = AUC ≥ 150)”.
In the case of `CCO[C@H]1CC[C@H](c2cc3c(cc2Nc2cccc4c2C(=O)N([C@@H]2CCC(=O)NC2=O)C4=O)N(C)C(=O)[C@@H](C)O3)CC1` [Compound 54, 2-((R)-2,6-dioxopiperidin-3-yl)-4-(((R)-7-((1r,4R)-4-ethoxycyclohexyl)-2,4-dimethyl-3-oxo-3,4-dihydro-2H-benzo[b][1,4]oxazin-6-yl)amino)isoindoline-1,3-dione], the DC50 [1] is reported as 14 nM, the DC50 [2] is reported as 8 nM and the “HBF AUC” value [3] is reported as “++ (++ = 100 ≤ AUC < 150)”.
For `Cc1cc(-c2cc3c(cc2Nc2cccc4c2C(=O)N([C@@H]2CCC(=O)NC2=O)C4=O)N(C)C(=O)OC3)ccn1` [Compound 12, (R)-2-(2,6-dioxopiperidin-3-yl)-4-((1-methyl-6-(2-methylpyridin-4-yl)-2-oxo-1,4-dihydro-2H-benzo[d][1,3]oxazin-7-yl)amino)isoindoline-1,3-dione], the DC50 [1] was 34 nM, the DC50 [2] was 37 nM and the “HBF AUC” value [3] was “+ (+ = 15 ≤ AUC < 100)”.
